Measured values from patent US20250302783A1, “SYMPATHETIC NERVE ACTIVATION AGENT AND SYMPATHETIC NERVE ACTIVATION COMPOSITION” (MARUZEN PHARMACEUTICALS CO., LTD., priority 2022, published 2025).

Legend:
Format in all cases: in vivo, rat
[1] = test system: distal branches of the sympathetic nerve innervating the right epididymal white adipose tissue; experiment: White adipose tissue sympathetic nerve activity (WAT-SNA) after intragastric administration, Test Example 1; conditions: urethane-anesthetized male rats, measured for 60 minutes, FIG. 1
Protocol: The effect of the intragastric administration of the compound represented by Structural Formula (1) on the activity of the sympathetic nerve innervating the white adipose tissue, the brown adipose tissue, the adrenal gland, or the liver was tested in the following manner. For the experiment, male Whistar rats (approximately 9 weeks old) each having a body weight of approximately 300 g were kept in a 24° C. thermostatic animal room for 1 week or longer with a 12-hour light-dark cycle (lighting from 8:00 to 20:00). On the day of the experiment, the rats were fasted for 3 hours, followed by anesthetizing with urethane. A cannula for intragastric administration was inserted into each of the rats, and then distal branches of the sympathetic nerve innervating the right epididymal white adipose tissue, the interscapular brown adipose tissue, the left adrenal gland, or the liver were lifted with a silver electrode, and the electrical activity thereof was measured. […] In addition, as a control, water serving as a solvent was intragastrically administered using the cannula at a dose of 0.5 mL/300 g of body weight, and the change in the neural activity of the distal branches of the above sympathetic nerves was measured electrophysiologically for 60 minutes. […]

[2] = test system: distal branches of the sympathetic nerve innervating the interscapular brown adipose tissue; experiment: Brown adipose tissue sympathetic nerve activity (BAT-SNA) after intragastric administration, Test Example 1; conditions: urethane-anesthetized male rats, measured for 60 minutes, FIG. 2
Protocol: (§1) The effect of the intragastric administration of the compound represented by Structural Formula (1) on the activity of the sympathetic nerve innervating the white adipose tissue, the brown adipose tissue, the adrenal gland, or the liver was tested in the following manner. For the experiment, male Whistar rats (approximately 9 weeks old) each having a body weight of approximately 300 g were kept in a 24° C. thermostatic animal room for 1 week or longer with a 12-hour light-dark cycle (lighting from 8:00 to 20:00). On the day of the experiment, the rats were fasted for 3 hours, followed by anesthetizing with urethane. A cannula for intragastric administration was inserted into each of the rats, and then distal branches of the sympathetic nerve innervating the right epididymal white adipose tissue, the interscapular brown adipose tissue, the left adrenal gland, or the liver were lifted with a silver electrode, and the electrical activity thereof was measured. When the measurement value stabilized (at approximately 13:00), an aqueous solution of the compound represented by Structural Formula (1) (produced by Tokyo Chemical Industry Co., Ltd.) was intragastrically administered using the cannula at a dose of 15 mg/0.5 mL/300 g of body weight, 1.5 mg/0.5 mL/300 g of body weight, 0.15 mg/0.5 mL/300 g of body weight, or 0.015 mg/0.5 mL/300 g of body weight, and the change in the neural activity of the distal branches of the above sympathetic nerves was measured electrophysiologically for 60 minutes. In addition, as a control, water serving as a solvent was intragastrically administered using the cannula at a dose of 0.5 mL/300 g of body weight, and the change in the neural activity of the distal branches of the above sympathetic nerves was measured electrophysiologically for 60 minutes. […] The data of the neural activity was analyzed as the mean value of the firing rate per 5 seconds (pulse/5 s) every 5 minutes, and represented by a percentage relative to the mean value (a value at 0 minutes) at 5 minutes before the onset of stimulation being determined as 100%. […]

[3] = test system: distal branches of the sympathetic nerve innervating the left adrenal gland; experiment: Adrenal sympathetic nerve activity (ASNA) after intragastric administration, Test Example 1; conditions: urethane-anesthetized male rats, measured for 60 minutes, FIG. 3
Protocol: The effect of the intragastric administration of the compound represented by Structural Formula (1) on the activity of the sympathetic nerve innervating the white adipose tissue, the brown adipose tissue, the adrenal gland, or the liver was tested in the following manner. For the experiment, male Whistar rats (approximately 9 weeks old) each having a body weight of approximately 300 g were kept in a 24° C. thermostatic animal room for 1 week or longer with a 12-hour light-dark cycle (lighting from 8:00 to 20:00). On the day of the experiment, the rats were fasted for 3 hours, followed by anesthetizing with urethane. A cannula for intragastric administration was inserted into each of the rats, and then distal branches of the sympathetic nerve innervating the right epididymal white adipose tissue, the interscapular brown adipose tissue, the left adrenal gland, or the liver were lifted with a silver electrode, and the electrical activity thereof was measured. When the measurement value stabilized (at approximately 13:00), an aqueous solution of the compound represented by Structural Formula (1) (produced by Tokyo Chemical Industry Co., Ltd.) was intragastrically administered using the cannula at a dose of 15 mg/0.5 mL/300 g of body weight, 1.5 mg/0.5 mL/300 g of body weight, 0.15 mg/0.5 mL/300 g of body weight, or 0.015 mg/0.5 mL/300 g of body weight, and the change in the neural activity of the distal branches of the above sympathetic nerves was measured electrophysiologically for 60 minutes. In addition, as a control, water serving as a solvent was intragastrically administered using the cannula at a dose of 0.5 mL/300 g of body weight, and the change in the neural activity of the distal branches of the above sympathetic nerves was measured electrophysiologically for 60 minutes. […] The data of the neural activity was analyzed as the mean value of the firing rate per 5 seconds (pulse/5 s) every 5 minutes, and represented by a percentage relative to the mean value (a value at 0 minutes) at 5 minutes before the onset of stimulation being determined as 100%. FIG. 3 illustrates, as a percentage with respect to the mean value (a value at 0 minutes) at 5 minutes before the onset of stimulation being determined as 100%, the result of the change in the neural activity of distal branches of the sympathetic nerves for the adrenal gland (adrenal sympathetic nerve activity, ASNA) when the aqueous solution including 15 mg, 1.5 mg, 0.15 mg, or 0.015 mg of the compound represented by Structural Formula (1) was intragastrically administered at a dose of 0.5 mL/300 g of body weight, or water serving as the solvent was intragastrically administered at a dose of 0.5 mL/300 g of body weight.

[4] = test system: distal branches of the sympathetic nerve innervating the liver; experiment: Hepatic sympathetic nerve activity (Hepatic-SNA) after intragastric administration, Test Example 1; conditions: urethane-anesthetized male rats, measured for 60 minutes, FIG. 4
Protocol: as §1

[5] = 1.5 mg/0.5 mL/300 g of body weight
[6] = 15 mg/0.5 mL/300 g of body weight
[7] = 0.15 mg/0.5 mL/300 g of body weight

COc1cc(CCC(=O)O)ccc1O [3-(4-hydroxy-3-methoxyphenyl) propionic acid]
change in white adipose tissue sympathetic nerve activity (WAT-SNA) versus water control [1, 5]: higher than the WAT-SNA value of the group to which water serving as the solvent was administered | change in white adipose tissue sympathetic nerve activity (WAT-SNA) versus water control [1, 6]: higher than the WAT-SNA value of the group to which water serving as the solvent was administered | change in brown adipose tissue sympathetic nerve activity (BAT-SNA) versus water control [2, 7]: higher than the BAT-SNA value of the group to which water serving as the solvent was administered | change in brown adipose tissue sympathetic nerve activity (BAT-SNA) versus water control [2, 5]: higher than the BAT-SNA value of the group to which water serving as the solvent was administered | change in brown adipose tissue sympathetic nerve activity (BAT-SNA) versus water control [2, 6]: higher than the BAT-SNA value of the group to which water serving as the solvent was administered | change in adrenal sympathetic nerve activity (ASNA) versus water control ([3]; 0.015 mg/0.5 mL/300 g of body weight): higher than the ASNA value of the group to which water serving as the solvent was administered | change in adrenal sympathetic nerve activity (ASNA) versus water control [3, 7]: higher than the ASNA value of the group to which water serving as the solvent was administered | change in adrenal sympathetic nerve activity (ASNA) versus water control [3, 5]: higher than the ASNA value of the group to which water serving as the solvent was administered | change in adrenal sympathetic nerve activity (ASNA) versus water control [3, 6]: higher than the ASNA value of the group to which water serving as the solvent was administered | change in hepatic sympathetic nerve activity (Hepatic-SNA) versus water control [4, 7]: higher than the Hepatic-SNA value of the group to which water serving as the solvent was administered | change in hepatic sympathetic nerve activity (Hepatic-SNA) versus water control [4, 5]: higher than the Hepatic-SNA value of the group to which water serving as the solvent was administered | change in hepatic sympathetic nerve activity (Hepatic-SNA) versus water control [4, 6]: higher than the Hepatic-SNA value of the group to which water serving as the solvent was administered
